Each structure is given as a SMILES string. “And” between values parts separate entries of the source, which are not always exact repeats. Identical values can stand only once.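 These data come from cells grown in 96-well plates and exposed to compound for 48 hours at five concentrations. GI50 is the concentration that inhibits growth by half. At the TGI there is no net growth.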

Some test systems named below: HS 578T breast; SK-MEL-2 melanoma; OVCAR-4 ovarian; BT-549 breast; SR leukemia; SW-620 colon; NCI-H460 lung; EKVX NSCLC; KM12 colon; UACC-62 melanoma; SK-MEL-28 melanoma; UO-31 renal; SNB-75 CNS; MDA-MB-231 breast; SN12C renal; SK-MEL-5 melanoma; A498 renal.
Holding throughout (experiment): NCI anticancer screen, dose series, 48 h

On to `Cc1ccc2c(c1C)CC1(Cc3ccc(C)c(C)c3C1=O)C2=O` (stereo unspecified), for which the TGI in the assay with HS 578T breast, with SK-MEL-2 melanoma, in the assay on OVCAR-4 ovarian, with BT-549 breast, in the assay on SR leukemia and with SW-620 colon was over 100 µM throughout. The TGI in the assay on NCI-H460 lung, with EKVX NSCLC, with KM12 colon, in the assay on UACC-62 melanoma, in the assay on SK-MEL-28 melanoma and in the assay on UO-31 renal was over 100 µM in each case. Moreover, the TGI in the assay with SNB-75 CNS, in the assay with MDA-MB-231 breast, in the assay with SN12C renal and with SK-MEL-5 melanoma was over 100 µM in each case.

`CCCCCCCCCCCCCCCCOP(=O)([O-])OCC[N+](C)(C)C1CC(C)(C)N(O)C(C)(C)C1`: the TGI with A498 renal, with HS 578T breast, in the assay on SK-MEL-2 melanoma, in the assay with OVCAR-4 ovarian, with BT-549 breast and in the assay with SR leukemia was over 100 µM in each case. Further, the TGI in the assay on SW-620 colon, in the assay with NCI-H460 lung, with EKVX NSCLC, with KM12 colon, in the assay with UACC-62 melanoma and in the assay on UO-31 renal was over 100 µM in each case. The TGI in the assay on SNB-75 CNS, in the assay on MDA-MB-231 breast and in the assay on SK-MEL-5 melanoma was over 100 µM each time.

On to `COC(=O)[C@@H]1Cc2ccc(OC)c(c2)OCCC(=O)N1`, for which the TGI with HS 578T breast, with SK-MEL-2 melanoma, in the assay with OVCAR-4 ovarian, with BT-549 breast, in the assay on SR leukemia and in the assay on SW-620 colon was over 100 µM throughout. In addition, the TGI in the assay on EKVX NSCLC, with KM12 colon, in the assay on UACC-62 melanoma, in the assay on SK-MEL-28 melanoma, in the assay on UO-31 renal and in the assay with SNB-75 CNS was over 100 µM throughout. The TGI in the assay with MDA-MB-231 breast and with SK-MEL-5 melanoma was over 100 µM throughout.

As for `O=C(O)CCC(NC(=O)c1ccc(Nc2nc3ccc(C(F)(F)F)cc3nc2C(=O)O)cc1)C(=O)O` (stereo unspecified), the TGI in the assay with A498 renal, in the assay on HS 578T breast, in the assay on SK-MEL-2 melanoma, with BT-549 breast, with SR leukemia and with SW-620 colon was over 100 µM in each case. The TGI with EKVX NSCLC, with KM12 colon, in the assay with UACC-62 melanoma, in the assay on UO-31 renal, with SNB-75 CNS and in the assay on MDA-MB-231 breast was over 100 µM in each case. Besides, the TGI with SN12C renal and with SK-MEL-5 melanoma was over 100 µM each time.

With `CN(CC(=O)Nc1ccccc1C(=O)O)c1ccccc1`, the TGI in the assay on A498 renal, in the assay with HS 578T breast, with OVCAR-4 ovarian, in the assay with BT-549 breast, with SR leukemia and in the assay on SW-620 colon was over 100 µM each time. Further, the TGI in the assay with NCI-H460 lung, with EKVX NSCLC, in the assay with KM12 colon, in the assay with SK-MEL-28 melanoma, in the assay on UO-31 renal and in the assay on SNB-75 CNS was over 100 µM throughout. The TGI in the assay with MDA-MB-231 breast, in the assay with SN12C renal and in the assay on SK-MEL-5 melanoma was over 100 µM throughout.

Take `N#CCc1nc(-c2cc3ccccc3oc2=O)cs1`: the TGI with HS 578T breast was over 100 µM; with SK-MEL-2 melanoma, 80.2 µM; with OVCAR-4 ovarian it was over 100 µM; in the assay on BT-549 breast, 66.8 µM; in the assay on SR leukemia, over 100 µM; in the assay on SW-620 colon, over 100 µM. The TGI in the assay on NCI-H460 lung is over 100 µM; with EKVX NSCLC, over 100 µM; in the assay with KM12 colon, over 100 µM; with UACC-62 melanoma it was 45.6 µM; in the assay with SK-MEL-28 melanoma, over 100 µM; with UO-31 renal it was over 100 µM. Moreover, the TGI with SNB-75 CNS is 99.7 µM; with MDA-MB-231 breast it was over 100 µM; in the assay with SN12C renal, over 100 µM; in the assay on SK-MEL-5 melanoma, 64 µM.

Consider `Cc1cc2nnn(C3CCCCO3)c2cc1C` (stereo unspecified), for which the TGI with HS 578T breast, in the assay with SK-MEL-2 melanoma, with OVCAR-4 ovarian, in the assay with BT-549 breast, with SR leukemia and with NCI-H460 lung was over 100 µM each time. Also, the TGI with EKVX NSCLC, in the assay on KM12 colon, in the assay on UACC-62 melanoma, in the assay on UO-31 renal, in the assay with SNB-75 CNS and in the assay on MDA-MB-231 breast was over 100 µM in each case. For the same molecule, the TGI in the assay on SN12C renal and in the assay on SK-MEL-5 melanoma was over 100 µM throughout.

For the molecule `Cc1cnc2[nH]c(-c3cccc4ccccc34)cc(=O)c2c1`, the TGI with A498 renal is 0.00286 µM; in the assay on HS 578T breast, over 100 µM; in the assay on SK-MEL-2 melanoma, over 100 µM; in the assay with OVCAR-4 ovarian, over 100 µM; in the assay on BT-549 breast it was over 100 µM; in the assay with SR leukemia, over 100 µM. In addition, the TGI was over 100 µM in the assay with SW-620 colon; over 100 µM in the assay on NCI-H460 lung; over 100 µM in the assay with EKVX NSCLC; 0.25 µM and 1.45 µM with KM12 colon; over 100 µM in the assay with UACC-62 melanoma; over 100 µM in the assay on SK-MEL-28 melanoma. Moreover, the TGI with UO-31 renal is 34 µM; in the assay with SN12C renal it was over 100 µM. Moreover, the results for the GI50 in the assay with MDA-MB-231 breast and with SN12C renal were 0.0119 µM and 0.042 µM, respectively.

Regarding `Cc1nc2ccccc2n1Cc1nnc(-c2ccccc2)o1`, the TGI with A498 renal, with HS 578T breast, in the assay on SK-MEL-2 melanoma, in the assay with BT-549 breast, in the assay with SR leukemia and in the assay with SW-620 colon was over 100 µM each time. In addition, the TGI in the assay with NCI-H460 lung, in the assay with EKVX NSCLC, with KM12 colon, in the assay with UACC-62 melanoma, with SK-MEL-28 melanoma and in the assay on UO-31 renal was over 100 µM each time. Moreover, the TGI with SNB-75 CNS, in the assay on MDA-MB-231 breast, with SN12C renal and in the assay with SK-MEL-5 melanoma was over 100 µM throughout.

Values taken from PubChem BioAssay (NCI).
